Measured values reported in ChEMBL document CHEMBL4507317, “Data for DCP probe BAY-899” (2021).

Assays:
[1] = target: T1, 5-hydroxytryptamine receptor 2B (Homo sapiens, UniProt P41595); test: GPCRScan assay: inhibition of 5-HT2B; set-up: radioligand conc. used [nm] 1.0 – 2.0, parental cells stable HEK
[2] = target: 5-hydroxytryptamine receptor 2C (Homo sapiens, UniProt P28335); test: GPCRScan assay: inhibition of 5-HT2C; set-up: radioligand conc. used [nm] 1.0 – 2.5, parental cells HEK T
[3] = target: Lutropin-choriogonadotropic hormone receptor (Homo sapiens, UniProt P22888); test: Cell-based assay (LH Antagonism)
[4] = target: Interleukin-1 receptor-associated kinase 4 (Homo sapiens) (UniProt Q9NWZ3); conditions: Compound concentration 1000.0 nM
[5] = target: Serine/threonine-protein kinase tousled-like 1 (Homo sapiens) (UniProt Q9UKI8); conditions: Compound concentration 1000.0 nM
[6] = target: NT-3 growth factor receptor (Homo sapiens) (UniProt Q16288); conditions: Compound concentration 1000.0 nM
[7] = target: 5-hydroxytryptamine receptor 5A (Homo sapiens) (UniProt P47898); conditions: Compound concentration 10.0 uM
[8] = target: Delta-type opioid receptor (Homo sapiens) (UniProt P41143); conditions: Compound concentration 10.0 uM
[9] = target: Beta-3 adrenergic receptor (Homo sapiens) (UniProt P13945); conditions: Compound concentration 10.0 uM
[10] = target: Adenosine receptor A2b (Homo sapiens) (UniProt P29275); test: A2B Eurofins Bayer panel; conditions: Compound concentration 10.0 uM
[11] = target: Adenosine receptor A3 (Homo sapiens) (UniProt P0DMS8); test: A3 Eurofins Bayer panel; conditions: Compound concentration 10.0 uM
[12] = target: T2, Alpha-1A adrenergic receptor (Homo sapiens) (UniProt P35348); test: alpha 1A Eurofins Bayer panel; conditions: Compound concentration 10.0 uM
T2 sequence (whole entry): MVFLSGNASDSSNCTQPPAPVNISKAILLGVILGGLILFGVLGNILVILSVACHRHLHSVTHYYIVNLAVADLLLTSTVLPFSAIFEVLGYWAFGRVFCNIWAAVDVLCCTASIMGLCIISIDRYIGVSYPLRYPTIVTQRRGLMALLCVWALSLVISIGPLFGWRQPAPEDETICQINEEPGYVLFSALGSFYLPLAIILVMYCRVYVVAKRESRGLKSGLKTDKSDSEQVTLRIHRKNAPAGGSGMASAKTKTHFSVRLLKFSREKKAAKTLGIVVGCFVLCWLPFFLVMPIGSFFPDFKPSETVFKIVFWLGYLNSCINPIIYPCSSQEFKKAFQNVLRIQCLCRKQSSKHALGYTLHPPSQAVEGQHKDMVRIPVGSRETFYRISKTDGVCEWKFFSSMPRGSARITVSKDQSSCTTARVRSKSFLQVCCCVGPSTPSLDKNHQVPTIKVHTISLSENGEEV

[13] = target: T3, Alpha-2A adrenergic receptor (Homo sapiens) (UniProt P08913); test: alpha 2A Eurofins Bayer panel; conditions: Compound concentration 10.0 uM
T3 sequence (whole entry): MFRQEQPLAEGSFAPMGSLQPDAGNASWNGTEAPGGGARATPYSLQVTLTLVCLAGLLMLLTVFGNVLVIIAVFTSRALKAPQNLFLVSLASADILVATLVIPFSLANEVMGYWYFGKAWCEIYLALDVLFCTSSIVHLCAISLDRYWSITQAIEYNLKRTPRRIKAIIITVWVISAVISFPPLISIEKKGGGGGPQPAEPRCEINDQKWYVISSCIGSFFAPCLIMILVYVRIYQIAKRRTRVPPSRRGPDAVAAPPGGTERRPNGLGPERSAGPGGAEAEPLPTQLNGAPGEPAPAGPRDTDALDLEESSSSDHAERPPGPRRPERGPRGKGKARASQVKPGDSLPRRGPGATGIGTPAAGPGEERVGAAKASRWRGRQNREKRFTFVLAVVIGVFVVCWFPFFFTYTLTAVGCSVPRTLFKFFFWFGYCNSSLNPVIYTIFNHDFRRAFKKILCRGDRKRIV

[14] = target: Beta-2 adrenergic receptor (Homo sapiens) (UniProt P07550); test: beta 2 Eurofins Bayer panel; conditions: Compound concentration 10.0 uM
[15] = target: D(1A) dopamine receptor (Homo sapiens) (UniProt P21728); test: D1 Eurofins Bayer panel; conditions: Compound concentration 10.0 uM
[16] = target: D(2) dopamine receptor (Homo sapiens) (UniProt P14416); test: D2L Eurofins Bayer panel; conditions: Compound concentration 10.0 uM
[17] = target: Histamine H1 receptor (Homo sapiens) (UniProt P35367); test: H1 Eurofins Bayer panel; conditions: Compound concentration 10.0 uM
[18] = target: Melanocortin receptor 4 (Homo sapiens) (UniProt P32245); test: MC4 Eurofins Bayer panel; conditions: Compound concentration 10.0 uM
[19] = target: Motilin receptor (Homo sapiens) (UniProt O43193); test: Motilin Eurofins Bayer panel; conditions: Compound concentration 10.0 uM
[20] = target: Substance-P receptor (Homo sapiens) (UniProt P25103); test: NK1 Eurofins Bayer panel; conditions: Compound concentration 10.0 uM
[21] = target: P2Y purinoceptor 2 (Homo sapiens) (UniProt P41231); test: P2Y2 Eurofins Bayer panel; conditions: Compound concentration 10.0 uM
[22] = target: T4, 5-hydroxytryptamine receptor 1A (Homo sapiens) (UniProt P08908); test: 5-HT1A Eurofins Bayer panel; conditions: Compound concentration 10.0 uM
T4 sequence (whole entry): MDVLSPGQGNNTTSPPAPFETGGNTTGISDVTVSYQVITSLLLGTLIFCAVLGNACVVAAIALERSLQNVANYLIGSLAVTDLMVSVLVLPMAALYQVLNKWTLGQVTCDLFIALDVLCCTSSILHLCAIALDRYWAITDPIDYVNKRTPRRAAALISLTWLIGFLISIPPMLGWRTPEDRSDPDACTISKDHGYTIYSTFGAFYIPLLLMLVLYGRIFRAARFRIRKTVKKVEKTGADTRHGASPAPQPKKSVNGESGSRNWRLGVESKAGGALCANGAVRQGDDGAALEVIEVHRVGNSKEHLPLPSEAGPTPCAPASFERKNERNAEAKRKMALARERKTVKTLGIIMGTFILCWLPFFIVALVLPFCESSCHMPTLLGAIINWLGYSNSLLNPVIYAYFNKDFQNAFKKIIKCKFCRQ

[23] = target: T1, 5-hydroxytryptamine receptor 2B; test: 5-HT2B Eurofins Bayer panel; conditions: Compound concentration 10.0 uM
[24] = target: Somatostatin receptor type 4 (Homo sapiens) (UniProt P31391); test: sst4 Eurofins Bayer panel; conditions: Compound concentration 10.0 uM
Sequence of Somatostatin receptor type 4 (Homo sapiens) (P31391 whole entry): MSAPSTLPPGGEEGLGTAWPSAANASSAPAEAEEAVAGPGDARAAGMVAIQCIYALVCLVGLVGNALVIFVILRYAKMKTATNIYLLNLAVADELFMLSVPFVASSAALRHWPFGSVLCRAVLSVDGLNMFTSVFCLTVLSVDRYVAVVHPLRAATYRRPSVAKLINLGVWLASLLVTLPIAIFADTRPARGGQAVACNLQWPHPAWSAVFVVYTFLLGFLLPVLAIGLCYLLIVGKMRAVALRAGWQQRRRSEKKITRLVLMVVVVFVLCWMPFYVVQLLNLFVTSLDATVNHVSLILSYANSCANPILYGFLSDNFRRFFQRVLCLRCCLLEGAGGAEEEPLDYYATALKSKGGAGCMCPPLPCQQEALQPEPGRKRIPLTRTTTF

T1 sequence (P41595 whole entry): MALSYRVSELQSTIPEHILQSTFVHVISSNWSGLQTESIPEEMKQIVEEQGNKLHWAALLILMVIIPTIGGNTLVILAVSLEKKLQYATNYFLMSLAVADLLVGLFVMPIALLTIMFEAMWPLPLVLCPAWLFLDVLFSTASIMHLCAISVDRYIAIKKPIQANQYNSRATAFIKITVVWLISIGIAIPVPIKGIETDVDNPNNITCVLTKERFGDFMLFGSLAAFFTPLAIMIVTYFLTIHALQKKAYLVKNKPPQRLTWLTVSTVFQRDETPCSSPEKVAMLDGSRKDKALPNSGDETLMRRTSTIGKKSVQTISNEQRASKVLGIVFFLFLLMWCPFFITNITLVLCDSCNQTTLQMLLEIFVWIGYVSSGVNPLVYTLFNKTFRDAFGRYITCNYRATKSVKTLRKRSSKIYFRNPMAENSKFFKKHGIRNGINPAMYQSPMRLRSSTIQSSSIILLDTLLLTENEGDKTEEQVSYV
Sequence of Adenosine receptor A2b (Homo sapiens) (P29275 whole entry): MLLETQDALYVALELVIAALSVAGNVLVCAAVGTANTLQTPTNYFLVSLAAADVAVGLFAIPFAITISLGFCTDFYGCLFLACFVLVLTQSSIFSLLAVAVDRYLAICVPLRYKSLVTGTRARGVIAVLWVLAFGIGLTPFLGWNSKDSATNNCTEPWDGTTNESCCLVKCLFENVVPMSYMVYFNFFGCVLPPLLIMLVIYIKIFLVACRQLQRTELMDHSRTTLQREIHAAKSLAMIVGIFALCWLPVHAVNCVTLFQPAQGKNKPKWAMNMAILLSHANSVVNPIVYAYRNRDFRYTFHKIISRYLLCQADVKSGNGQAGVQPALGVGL
Sequence of Substance-P receptor (Homo sapiens) (P25103 whole entry): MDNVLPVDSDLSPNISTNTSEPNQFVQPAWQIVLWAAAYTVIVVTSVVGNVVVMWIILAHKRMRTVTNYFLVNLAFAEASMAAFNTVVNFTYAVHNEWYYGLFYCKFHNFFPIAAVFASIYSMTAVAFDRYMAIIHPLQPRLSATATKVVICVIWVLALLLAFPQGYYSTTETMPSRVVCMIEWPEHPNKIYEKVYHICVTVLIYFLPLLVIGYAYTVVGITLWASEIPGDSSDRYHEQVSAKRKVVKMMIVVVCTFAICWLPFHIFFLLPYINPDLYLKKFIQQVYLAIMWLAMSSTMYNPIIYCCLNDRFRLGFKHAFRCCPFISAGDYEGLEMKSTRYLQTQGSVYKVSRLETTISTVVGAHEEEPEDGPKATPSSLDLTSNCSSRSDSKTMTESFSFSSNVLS
Sequence of Interleukin-1 receptor-associated kinase 4 (Homo sapiens) (Q9NWZ3 whole entry): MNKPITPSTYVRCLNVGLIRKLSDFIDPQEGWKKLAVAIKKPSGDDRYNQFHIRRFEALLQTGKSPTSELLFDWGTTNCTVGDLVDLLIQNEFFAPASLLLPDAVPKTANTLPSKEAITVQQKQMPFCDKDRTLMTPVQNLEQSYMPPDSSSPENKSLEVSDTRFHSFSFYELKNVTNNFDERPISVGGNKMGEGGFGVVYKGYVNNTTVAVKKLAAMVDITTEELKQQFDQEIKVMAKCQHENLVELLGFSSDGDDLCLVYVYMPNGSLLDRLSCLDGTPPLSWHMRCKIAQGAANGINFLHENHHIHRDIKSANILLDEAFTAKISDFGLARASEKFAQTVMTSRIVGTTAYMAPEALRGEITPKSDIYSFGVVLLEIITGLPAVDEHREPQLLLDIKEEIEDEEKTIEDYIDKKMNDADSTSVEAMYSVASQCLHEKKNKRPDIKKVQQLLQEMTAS
Sequence of NT-3 growth factor receptor (Homo sapiens) (Q16288 32-839 limits assumed): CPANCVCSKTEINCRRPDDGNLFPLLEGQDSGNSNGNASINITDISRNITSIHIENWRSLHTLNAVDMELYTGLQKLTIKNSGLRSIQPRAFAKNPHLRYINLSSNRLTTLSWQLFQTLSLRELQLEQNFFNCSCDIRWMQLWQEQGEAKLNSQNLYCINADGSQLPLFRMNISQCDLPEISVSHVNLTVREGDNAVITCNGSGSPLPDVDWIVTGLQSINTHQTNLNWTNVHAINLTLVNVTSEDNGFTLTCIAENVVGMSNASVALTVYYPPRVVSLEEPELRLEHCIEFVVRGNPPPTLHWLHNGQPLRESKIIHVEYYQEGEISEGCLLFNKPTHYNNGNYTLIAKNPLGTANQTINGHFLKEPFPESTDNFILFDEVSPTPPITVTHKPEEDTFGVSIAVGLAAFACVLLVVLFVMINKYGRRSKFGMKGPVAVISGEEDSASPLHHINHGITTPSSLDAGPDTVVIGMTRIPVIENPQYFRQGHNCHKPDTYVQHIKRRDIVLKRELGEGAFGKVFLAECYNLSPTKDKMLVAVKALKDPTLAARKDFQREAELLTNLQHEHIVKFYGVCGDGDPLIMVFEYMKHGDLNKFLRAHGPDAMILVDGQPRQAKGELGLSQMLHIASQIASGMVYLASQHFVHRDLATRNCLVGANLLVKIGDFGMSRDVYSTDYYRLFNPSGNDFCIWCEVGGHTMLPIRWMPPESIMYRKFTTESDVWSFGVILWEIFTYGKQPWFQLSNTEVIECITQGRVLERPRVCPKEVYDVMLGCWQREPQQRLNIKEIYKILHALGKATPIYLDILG
Sequence of Adenosine receptor A3 (Homo sapiens) (P0DMS8 whole entry): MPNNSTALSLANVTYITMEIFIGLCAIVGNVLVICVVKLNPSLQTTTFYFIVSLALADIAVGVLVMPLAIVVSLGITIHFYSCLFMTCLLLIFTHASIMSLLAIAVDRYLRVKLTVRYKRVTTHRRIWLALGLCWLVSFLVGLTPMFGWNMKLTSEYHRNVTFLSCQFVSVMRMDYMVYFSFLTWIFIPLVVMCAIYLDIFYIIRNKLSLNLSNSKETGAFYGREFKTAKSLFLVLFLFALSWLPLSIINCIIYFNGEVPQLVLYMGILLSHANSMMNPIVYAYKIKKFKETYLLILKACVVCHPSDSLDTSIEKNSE
Sequence of Motilin receptor (Homo sapiens) (O43193 whole entry): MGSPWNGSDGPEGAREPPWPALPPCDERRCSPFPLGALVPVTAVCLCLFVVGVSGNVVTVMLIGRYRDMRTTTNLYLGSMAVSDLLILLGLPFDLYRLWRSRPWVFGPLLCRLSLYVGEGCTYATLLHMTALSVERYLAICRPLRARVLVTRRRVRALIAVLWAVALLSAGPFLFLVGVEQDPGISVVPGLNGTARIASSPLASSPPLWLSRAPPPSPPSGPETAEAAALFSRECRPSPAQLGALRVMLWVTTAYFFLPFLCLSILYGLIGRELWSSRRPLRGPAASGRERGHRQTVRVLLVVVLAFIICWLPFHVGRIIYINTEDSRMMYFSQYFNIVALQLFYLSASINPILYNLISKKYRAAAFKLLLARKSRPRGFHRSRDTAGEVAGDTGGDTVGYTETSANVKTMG
Sequence of Beta-2 adrenergic receptor (Homo sapiens) (P07550 whole entry, looked up): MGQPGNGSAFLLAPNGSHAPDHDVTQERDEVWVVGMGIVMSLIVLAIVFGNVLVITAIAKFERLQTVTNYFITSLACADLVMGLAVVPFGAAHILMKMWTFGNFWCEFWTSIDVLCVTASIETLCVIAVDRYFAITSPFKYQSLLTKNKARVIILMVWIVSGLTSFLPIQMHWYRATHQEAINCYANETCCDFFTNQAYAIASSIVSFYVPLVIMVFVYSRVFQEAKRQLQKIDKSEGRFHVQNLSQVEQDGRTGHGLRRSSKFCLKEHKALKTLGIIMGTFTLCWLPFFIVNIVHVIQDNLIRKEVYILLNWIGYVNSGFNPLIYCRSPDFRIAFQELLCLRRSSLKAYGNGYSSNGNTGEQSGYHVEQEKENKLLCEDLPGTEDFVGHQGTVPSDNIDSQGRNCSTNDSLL
Sequence of Serine/threonine-protein kinase tousled-like 1 (Homo sapiens) (Q9UKI8 whole entry): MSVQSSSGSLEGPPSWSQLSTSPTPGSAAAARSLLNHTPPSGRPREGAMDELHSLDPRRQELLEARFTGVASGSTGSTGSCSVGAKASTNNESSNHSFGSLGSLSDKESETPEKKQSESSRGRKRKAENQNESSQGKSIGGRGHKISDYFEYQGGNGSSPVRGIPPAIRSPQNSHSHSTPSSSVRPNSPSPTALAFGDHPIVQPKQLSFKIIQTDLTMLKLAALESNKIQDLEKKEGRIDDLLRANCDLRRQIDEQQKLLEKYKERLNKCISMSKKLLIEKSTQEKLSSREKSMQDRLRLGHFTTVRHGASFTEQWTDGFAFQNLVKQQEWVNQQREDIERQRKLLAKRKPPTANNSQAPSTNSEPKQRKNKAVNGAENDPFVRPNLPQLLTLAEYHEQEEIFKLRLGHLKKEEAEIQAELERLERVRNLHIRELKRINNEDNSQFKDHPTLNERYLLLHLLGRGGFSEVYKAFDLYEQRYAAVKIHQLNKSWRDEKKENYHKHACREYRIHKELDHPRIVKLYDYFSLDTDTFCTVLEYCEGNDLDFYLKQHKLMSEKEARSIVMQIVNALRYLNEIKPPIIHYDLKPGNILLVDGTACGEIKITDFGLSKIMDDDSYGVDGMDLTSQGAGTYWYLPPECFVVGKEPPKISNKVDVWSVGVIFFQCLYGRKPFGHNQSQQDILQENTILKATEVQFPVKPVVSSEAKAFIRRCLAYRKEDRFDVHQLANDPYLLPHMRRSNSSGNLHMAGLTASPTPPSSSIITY

## O=C(Nc1ccc(Oc2ccc(F)cc2)cc1)N1CCc2ncccc2[C@H]1c1ccc(F)cc1 [BAY-897]
[1]
  Ki: 5.25 µM
[2]
  Ki: 1.08 µM
[3]
  IC50: > 16 µM (not active)
[4]
  residual activity: 96%
[5]
  residual activity: 100%
[6]
  residual activity: 68%
[7]
  inhibition: 7.18%
[8]
  inhibition: 32.7%
[9]
  inhibition: 29.4%

## O=C(Nc1cnc(Oc2ccc(F)cc2)nc1)N1CCc2ncccc2[C@@H]1c1ccc(F)cc1 [BAY-899]
[10]
  Activation (% of control): -1%
  Inhibition (% of control): 16%
[11]
  Activation (% of control): 25%
  Inhibition (% of control): -6%
[12]
  Activation (% of control): 2%
  Inhibition (% of control): 45%
[13]
  Activation (% of control): -2%
  Inhibition (% of control): -16%
[14]
  Activation (% of control): -3%
  Inhibition (% of control): 26%
[15]
  Activation (% of control): -1%
  Inhibition (% of control): 15%
[16]
  Activation (% of control): -1%
  Inhibition (% of control): 67%
[17]
  Activation (% of control): -4%
  Inhibition (% of control): 4%
[18]
  Activation (% of control): -2%
  Inhibition (% of control): 11%
[19]
  Activation (% of control): -1%
  Inhibition (% of control): 28%
[20]
  Activation (% of control): -3%
  Inhibition (% of control): 24%
[21]
  Activation (% of control): -1%
  Inhibition (% of control): 8%
[22]
  Activation (% of control): 1%
  Inhibition (% of control): 0%
[23]
  Activation (% of control): 1%
  Inhibition (% of control): 18%
[24]
  Activation (% of control): 23%
  Inhibition (% of control): 6%
[4]
  residual activity: 95%
[5]
  residual activity: 90%
[6]
  residual activity: 75%
